Assay results: the CheMixHub viscosity set

Assay: xn = mol fraction of the nth substance listed

CO + O
Settings | viscosity [mPa·s]
293.15 K, 100 kPa, x1 = 0.2 | 1.801
293.15 K, 100 kPa, x1 = 0.3 | 1.845
293.15 K, 100 kPa, x1 = 0.4 | 1.764
293.15 K, 101 kPa, x1 = 0.055 | 1.262
293.15 K, 101 kPa, x1 = 0.129 | 1.651
293.15 K, 101 kPa, x1 = 0.232 | 1.836
293.15 K, 101 kPa, x1 = 0.487 | 1.555
293.15 K, 101 kPa, x1 = 0.541 | 1.418
293.15 K, 101 kPa, x1 = 0.625 | 1.23
293.15 K, 101 kPa, x1 = 0.642 | 1.186
293.15 K, 101 kPa, x1 = 0.903 | 0.745
293.15 K, 101.3 kPa, x1 = 0.05886 | 1.276
293.15 K, 101.3 kPa, x1 = 0.05892 | 1.276
293.15 K, 101.3 kPa, x1 = 0.1014 | 1.465
293.15 K, 101.3 kPa, x1 = 0.1021 | 1.453
293.15 K, 101.3 kPa, x1 = 0.1493 | 1.628
293.15 K, 101.3 kPa, x1 = 0.1972 | 1.742
293.15 K, 101.3 kPa, x2 = 0.0969 | 0.743
293.15 K, 101.3 kPa, x2 = 0.2006 | 0.916
293.15 K, 101.3 kPa, x2 = 0.3002 | 1.105
293.15 K, 101.3 kPa, x2 = 0.4001 | 1.314
293.15 K, 101.3 kPa, x2 = 0.5 | 1.501
293.15 K, 101.3 kPa, x2 = 0.7 | 1.837
293.15 K, 101.3 kPa, x2 = 0.85 | 1.705
293.15 K, 101.3 kPa, x2 = 0.9 | 1.528
293.15 K, 101.3 kPa, x2 = 0.95 | 1.278
298.15 K, 101 kPa, x1 = 0.0519 | 1.129
298.15 K, 101 kPa, x1 = 0.0845 | 1.264
298.15 K, 101 kPa, x1 = 0.125 | 1.385
298.15 K, 101 kPa, x1 = 0.217 | 1.576
298.15 K, 101 kPa, x1 = 0.274 | 1.59
298.15 K, 101 kPa, x1 = 0.465 | 1.35
298.15 K, 101 kPa, x1 = 0.702 | 1.03
298.15 K, 101 kPa, x2 = 0.9413 | 1.1
298.15 K, 101.3 kPa, x1 = 0.1021 | 1.3
298.15 K, 101.3 kPa, x1 = 0.1233 | 1.392
298.15 K, 101.3 kPa, x1 = 0.2727 | 1.595
298.15 K, 101.3 kPa, x1 = 0.3599 | 1.534
298.15 K, 101.3 kPa, x1 = 0.4576 | 1.401
298.15 K, 101.3 kPa, x1 = 0.5675 | 1.218
298.15 K, 101.3 kPa, x1 = 0.6922 | 1.005
298.15 K, 101.3 kPa, x1 = 0.835 | 0.782
298.15 K, 101.3 kPa, x1 = 0.9144 | 0.659
298.15 K, 101.33 kPa, x1 = 0.03958 | 1.055
298.15 K, 101.33 kPa, x1 = 0.05923 | 1.157
298.15 K, 101.33 kPa, x1 = 0.1332 | 1.403
298.15 K, 101.33 kPa, x1 = 0.2396 | 1.6
298.15 K, 101.33 kPa, x1 = 0.2551 | 1.575
298.15 K, 101.33 kPa, x1 = 0.2785 | 1.57
298.15 K, 101.33 kPa, x1 = 0.3255 | 1.57
298.15 K, 101.33 kPa, x1 = 0.3558 | 1.532
298.15 K, 101.33 kPa, x1 = 0.3863 | 1.49
298.15 K, 101.33 kPa, x1 = 0.4426 | 1.427
298.15 K, 101.33 kPa, x1 = 0.4685 | 1.37
298.15 K, 101.33 kPa, x1 = 0.5278 | 1.282
298.15 K, 101.33 kPa, x1 = 0.6055 | 1.167
298.15 K, 101.33 kPa, x1 = 0.6583 | 1.105
303.15 K, 101 kPa, x1 = 0.055 | 0.978
303.15 K, 101 kPa, x1 = 0.129 | 1.245
303.15 K, 101 kPa, x1 = 0.176 | 1.313
303.15 K, 101 kPa, x1 = 0.256 | 1.37
303.15 K, 101 kPa, x1 = 0.487 | 1.218
303.15 K, 101 kPa, x1 = 0.541 | 1.126
303.15 K, 101 kPa, x1 = 0.642 | 0.974
303.15 K, 101 kPa, x1 = 0.903 | 0.63
303.15 K, 101.3 kPa, x1 = 0.0588 | 1.015
303.15 K, 101.3 kPa, x1 = 0.1233 | 1.206
303.15 K, 101.3 kPa, x1 = 0.2727 | 1.381
303.15 K, 101.3 kPa, x1 = 0.4576 | 1.239
303.15 K, 101.3 kPa, x1 = 0.5675 | 1.085
303.15 K, 101.3 kPa, x1 = 0.6922 | 0.907
303.15 K, 101.3 kPa, x1 = 0.835 | 0.714
303.15 K, 101.3 kPa, x1 = 0.9144 | 0.612
303.15 K, 101.3 kPa, x2 = 0.0969 | 0.634
303.15 K, 101.3 kPa, x2 = 0.1 | 0.618
303.15 K, 101.3 kPa, x2 = 0.2006 | 0.768
303.15 K, 101.3 kPa, x2 = 0.208 | 0.755
303.15 K, 101.3 kPa, x2 = 0.3002 | 0.906
303.15 K, 101.3 kPa, x2 = 0.3041 | 0.878
303.15 K, 101.3 kPa, x2 = 0.4001 | 1.062
303.15 K, 101.3 kPa, x2 = 0.5 | 1.177
303.15 K, 101.3 kPa, x2 = 0.5599 | 1.263
303.15 K, 101.3 kPa, x2 = 0.6148 | 1.306
303.15 K, 101.3 kPa, x2 = 0.7 | 1.39
303.15 K, 101.3 kPa, x2 = 0.7982 | 1.308
303.15 K, 101.3 kPa, x2 = 0.8 | 1.361
303.15 K, 101.3 kPa, x2 = 0.85 | 1.284
303.15 K, 101.3 kPa, x2 = 0.9043 | 1.108
303.15 K, 101.3 kPa, x2 = 0.95 | 0.999
303.15 K, 101.33 kPa, x2 = 0.1232 | 0.625
303.15 K, 101.33 kPa, x2 = 0.1599 | 0.679
303.15 K, 101.33 kPa, x2 = 0.2168 | 0.765
303.15 K, 101.33 kPa, x2 = 0.2992 | 0.874
303.15 K, 101.33 kPa, x2 = 0.3639 | 0.972
303.15 K, 101.33 kPa, x2 = 0.3948 | 1.021
303.15 K, 101.33 kPa, x2 = 0.4567 | 1.129
303.15 K, 101.33 kPa, x2 = 0.5837 | 1.31
303.15 K, 101.33 kPa, x2 = 0.8272 | 1.319
303.15 K, 101.33 kPa, x2 = 0.8782 | 1.213
303.15 K, 101.33 kPa, x2 = 0.886 | 1.185
303.15 K, 101.33 kPa, x2 = 0.9125 | 1.11
308.15 K, 101 kPa, x1 = 0.125 | 1.07
308.15 K, 101 kPa, x1 = 0.274 | 1.22
308.15 K, 101 kPa, x1 = 0.465 | 1.08
308.15 K, 101 kPa, x1 = 0.702 | 0.834
308.15 K, 101 kPa, x2 = 0.9413 | 0.9361
308.15 K, 101.3 kPa, x1 = 0.0588 | 0.894
308.15 K, 101.3 kPa, x1 = 0.1233 | 1.062
308.15 K, 101.3 kPa, x1 = 0.1943 | 1.172
308.15 K, 101.3 kPa, x1 = 0.2727 | 1.213
308.15 K, 101.3 kPa, x1 = 0.3599 | 1.18
313.15 K, 101 kPa, x1 = 0.055 | 0.78
313.15 K, 101 kPa, x1 = 0.129 | 0.974
313.15 K, 101 kPa, x1 = 0.176 | 1.021
313.15 K, 101 kPa, x1 = 0.232 | 1.078
313.15 K, 101 kPa, x1 = 0.256 | 1.067
313.15 K, 101 kPa, x1 = 0.487 | 0.973
313.15 K, 101 kPa, x1 = 0.541 | 0.911
313.15 K, 101 kPa, x1 = 0.625 | 0.815
313.15 K, 101 kPa, x1 = 0.642 | 0.807
313.15 K, 101 kPa, x1 = 0.903 | 0.545
313.15 K, 101.3 kPa, x2 = 0.0969 | 0.544
313.15 K, 101.3 kPa, x2 = 0.2006 | 0.643
313.15 K, 101.3 kPa, x2 = 0.3002 | 0.749
313.15 K, 101.3 kPa, x2 = 0.4001 | 0.861
313.15 K, 101.3 kPa, x2 = 0.5 | 0.945
313.15 K, 101.3 kPa, x2 = 0.6 | 1.022
313.15 K, 101.3 kPa, x2 = 0.7 | 1.091
313.15 K, 101.3 kPa, x2 = 0.8 | 1.054
313.15 K, 101.3 kPa, x2 = 0.85 | 0.995
313.15 K, 101.3 kPa, x2 = 0.9 | 0.907
313.15 K, 101.3 kPa, x2 = 0.95 | 0.788
318.15 K, 101 kPa, x1 = 0.125 | 0.832
318.15 K, 101 kPa, x1 = 0.274 | 0.952
318.15 K, 101 kPa, x1 = 0.465 | 0.868
318.15 K, 101 kPa, x1 = 0.702 | 0.69
318.15 K, 101 kPa, x2 = 0.9413 | 0.8181
323.15 K, 100 kPa, x1 = 0.2 | 0.832
323.15 K, 100 kPa, x1 = 0.3 | 0.86
323.15 K, 100 kPa, x1 = 0.4 | 0.848
323.15 K, 101 kPa, x1 = 0.055 | 0.64
323.15 K, 101 kPa, x1 = 0.129 | 0.785
323.15 K, 101 kPa, x1 = 0.176 | 0.818
323.15 K, 101 kPa, x1 = 0.232 | 0.857
323.15 K, 101 kPa, x1 = 0.256 | 0.849
323.15 K, 101 kPa, x1 = 0.487 | 0.796
323.15 K, 101 kPa, x1 = 0.541 | 0.746
323.15 K, 101 kPa, x1 = 0.625 | 0.678
323.15 K, 101 kPa, x1 = 0.642 | 0.673
323.15 K, 101 kPa, x1 = 0.903 | 0.475
323.15 K, 101.3 kPa, x1 = 0.9144 | 0.458
323.15 K, 101.3 kPa, x2 = 0.0969 | 0.47
323.15 K, 101.3 kPa, x2 = 0.2006 | 0.547
323.15 K, 101.3 kPa, x2 = 0.3002 | 0.628
323.15 K, 101.3 kPa, x2 = 0.4001 | 0.71
323.15 K, 101.3 kPa, x2 = 0.5 | 0.774
323.15 K, 101.3 kPa, x2 = 0.6 | 0.826
323.15 K, 101.3 kPa, x2 = 0.7 | 0.86
323.15 K, 101.3 kPa, x2 = 0.8 | 0.84
323.15 K, 101.3 kPa, x2 = 0.85 | 0.796
323.15 K, 101.3 kPa, x2 = 0.95 | 0.647
